From patent US8980916B2, “Factor IXa inhibitors” (Merck Sharp & Dohme Corp., priority 2011, dated 2015)

Target: human Factor IXa (Homo sapiens (Human), UniProt P00740)
Test: Factor IXa enzyme assay (SPECTROFLUOR FIXa fluorogenic substrate)
Type: biochemical
Conditions: human Factor IXa 2.0 μg/ml, SPECTROFLUOR FIXa 100 μM, 60 minutes at room temperature, pH 8.0
Procedure: Inhibitory activity against Factor IXa was tested using the substrate SPECTROFLUOR FIXa (American Diagnostica Inc.; 500 West Avenue, Stamford, Conn. 06902 USA; Pr. No. 299F) and human Factor IXa (American Diagnostica Inc.; Pr. No. 449b). Test substances dissolved in buffer A (50 mM α,α,α-tris(hydroxymethyl)methylamine (Tris), 100 mM NaCl, 5 mM CaCl2, 15% (v/v) ethylene glycol, pH 8.0) were mixed with Factor IXa (2.0 μg/ml final concentration). The enzyme reaction was started by addition of SPECTROFLUOR FIXa (100 μM final concentration). After incubation for 60 minutes at room temperature, the reaction was stopped by the addition of 20% (v/v) acetic acid solution, and then fluorescence value measured (Excitation Wavelength: 355 nm, Emission Wavelength; 460 nm) in a microtiter plate reader (ARVO 1420 Multilabel Counter; PerkinElmer).
IC50 was calculated from a dilution series of the test substance with the aid of the software, Symix Assay Explorer (Symyx Technologies, Inc.).

Chain of human Factor IXa (P00740 227-461): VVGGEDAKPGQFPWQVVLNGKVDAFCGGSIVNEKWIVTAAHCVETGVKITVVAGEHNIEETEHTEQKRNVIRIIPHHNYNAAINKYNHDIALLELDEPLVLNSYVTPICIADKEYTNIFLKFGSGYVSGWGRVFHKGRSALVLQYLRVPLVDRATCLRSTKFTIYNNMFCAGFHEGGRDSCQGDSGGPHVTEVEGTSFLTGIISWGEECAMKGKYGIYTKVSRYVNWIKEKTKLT
Chain of human Factor IXa (P00740 47-191 partner): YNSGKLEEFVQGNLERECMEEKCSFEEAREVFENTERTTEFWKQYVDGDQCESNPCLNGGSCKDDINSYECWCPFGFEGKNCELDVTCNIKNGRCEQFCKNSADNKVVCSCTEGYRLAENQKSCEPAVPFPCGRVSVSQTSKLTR

## CC(C)(C)c1ccc(-n2cccc(C(O)C(=O)Nc3ccc4c(N)noc4c3)c2=O)cc1 (racemic) [Example 5, (±)-N-(3-aminobenzo[d]isoxazol-6-yl)-2-(1-(4-tert-butylphenyl)-2-oxo-1,2-dihydropyridin-3-yl)-2-hydroxyacetamide]
  IC50: 1000 nM

## CC(C)(C)c1ccc(-n2cccc(C(O)C(=O)Nc3ccc4c(N)nccc4c3)c2=O)cc1 (racemic) [Example 6, (±)-N-(1-aminoisoquinolin-6-yl)-2-(1-(4-tert-butylphenyl)-2-oxo-1,2-dihydropyridin-3-yl)-2-hydroxyacetamide]
  IC50: 54 nM
